From patent US10577378B2, “EIF4A-inhibiting compounds and methods related thereto” (eFFECTOR Therapeutics, Inc., priority 2015, dated 2020)

Test system: MDA-MB-231 human breast cancer cells
Experiment: Cell proliferation assay (CellTiter-Glo, 72 hours treatment)
Type: cell-based
Conditions: Homo sapiens; MDA-MB-231 cells, 72 hours at 37° C., CellTiter-Glo; read-out: MDA-MB-231 cell proliferation assay (IC50)
Procedure, shortened: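 MDA-MB-231 cells seeded at 2,500 cells/well, treated next day with compound or DMSO vehicle for 72 h at 37 °C. Proliferation read by CellTiter-Glo; IC50 from sigmoidal non-linear regression, binned as +++ (<100 nM), ++ (100–1000 nM), + (>1000 nM).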

Compound | IC50 [nM]
CN(C)C[C@H]1[C@@H](C#N)[C@@]2(O)c3ncc(Cl)cc3O[C@@]2(c2ccc(C#N)cc2)[C@@H]1c1ccccc1 (racemic) [228F, Rac-(5aR,6S,7R,8S,8aR)-3-chloro-5a-(4-cyanophenyl)-7-((dimethylamino)methyl)-8a-hydroxy-6-phenyl-5a,7,8,8a-tetrahydro-6H-cyclopenta[4,5]furo[3,2-b]pyridine-8-carbonitrile] | > 1000
COc1cc2c(c(OC)n1)[C@]1(O)[C@H](O)[C@H](C(=O)N(C)C)[C@@H](c3ccccc3)[C@]1(c1ccc(Br)cc1)O2 (racemic) [229F, rac-(5aR,6S,7R,8R,8aS)-5a-(4-bromophenyl)-8,8a-dihydroxy-1,3-dimethoxy-N,N-dimethyl-6-phenyl-5a,7,8,8a-tetrahydro-6H-cyclopenta[4,5]furo[3,2-c]pyridine-7-carboxamide] | < 100
COc1cc2c(c(OC)n1)[C@]1(O)[C@H](O)[C@H](CN(C)C)[C@@H](c3ccccc3)[C@]1(c1ccc(Br)cc1)O2 (racemic) [230F, Rac-(5aR,6S,7S,8R,8aS)-5a-(4-bromophenyl)-7-((dimethylamino)methyl)-1,3-dimethoxy-6-phenyl-5a,6,7,8-tetrahydro-8aH-cyclopenta[4,5]furo[3,2-c]pyridine-8,8a-diol] | < 100
CCN(CC)C[C@H]1[C@@H](O)[C@@]2(O)c3c(cc(OC)nc3OC)O[C@@]2(c2ccc(C#N)cc2)[C@@H]1c1ccccc1 (racemic) [232F, Rac-4-((5aR,6S,7S,8R,8aS)-7-((diethylamino)methyl)-8,8a-dihydroxy-1,3-dimethoxy-6-phenyl-6,7,8,8a-tetrahydro-5aH-cyclopenta[4,5]furo[3,2-c]pyridin-5a-yl)benzonitrile] | < 100
COc1cncc2c1[C@]1(O)[C@@H](CO)C[C@@H](c3ccccc3)[C@]1(c1ccc(CN)cc1)O2 (racemic) [234F, rac-(4bR,5R,7S,7aR)-7a-(4-(aminomethyl)phenyl)-5-(hydroxymethyl)-4-methoxy-7-phenyl-5,6,7,7a-tetrahydro-4bH-cyclopenta[4,5]furo[2,3-c]pyridin-4b-ol] | > 1000
COc1cncc2c1[C@]1(O)[C@H](O)[C@H](C(=O)N3CC4(COC4)C3)[C@@H](c3ccccc3)[C@]1(c1ccc(Br)cc1)O2 (racemic) [235F, Rac-((4bS,5R,6R,7S,7aR)-7a-(4-bromophenyl)-4b,5-dihydroxy-4-methoxy-7-phenyl-4b,6,7,7a-tetrahydro-5H-cyclopenta[4,5]furo[2,3-c]pyridin-6-yl)(2-oxa-6-azaspiro[3.3]heptan-6-yl)methanone] | < 100
COc1cncc2c1[C@]1(O)[C@H](O)[C@H](CN3CC4(COC4)C3)[C@@H](c3ccccc3)[C@]1(c1ccc(C#N)cc1)O2 (racemic) [236F, Rac-4-((4bS,5R,6S,7S,7aR)-6-((2-oxa-6-azaspiro[3.3]heptan-6-yl)methyl)-4b,5-dihydroxy-4-methoxy-7-phenyl-4b,5,6,7-tetrahydro-7aH-cyclopenta[4,5]furo[2,3-c]pyridin-7a-yl)benzonitrile] | 100 to 1000
COc1cncc2c1[C@]1(O)[C@H](O)[C@H](C(=O)N(C)C3COC3)[C@@H](c3ccccc3)[C@]1(c1ccc(Br)cc1)O2 (racemic) [237F, Rac-(4bS,5R,6R,7S,7aR)-7a-(4-bromophenyl)-4b,5-dihydroxy-4-methoxy-N-methyl-N-(oxetan-3-yl)-7-phenyl-4b,6,7,7a-tetrahydro-5H-cyclopenta[4,5]furo[2,3-c]pyridine-6-carboxamide] | < 100
COc1cncc2c1[C@]1(O)[C@H](O)[C@H](CN(C)C3COC3)[C@@H](c3ccccc3)[C@]1(c1ccc(C#N)cc1)O2 (racemic) [238F, Rac-4-((4bS,5R,6S,7S,7aR)-4b,5-dihydroxy-4-methoxy-6-((methyl(oxetan-3-yl)amino)methyl)-7-phenyl-4b,5,6,7-tetrahydro-7aH-cyclopenta[4,5]furo[2,3-c]pyridin-7a-yl)benzonitrile] | 100 to 1000
COc1cncc2c1[C@]1(O)[C@H](O)[C@H](C(=O)NC3COC3)[C@@H](c3ccccc3)[C@]1(c1ccc(Br)cc1)O2 (racemic) [239F, Rac-(4bS,5R,6R,7S,7aR)-7a-(4-bromophenyl)-4b,5-dihydroxy-4-methoxy-N-(oxetan-3-yl)-7-phenyl-4b,6,7,7a-tetrahydro-5H-cyclopenta[4,5]furo[2,3-c]pyridine-6-carboxamide] | < 100
COc1cncc2c1[C@]1(O)[C@H](O)[C@H](CNC3COC3)[C@@H](c3ccccc3)[C@]1(c1ccc(C#N)cc1)O2 (racemic) [240F, Rac-4-((4bS,5R,6S,7S,7aR)-4b,5-dihydroxy-4-methoxy-6-((oxetan-3-ylamino)methyl)-7-phenyl-4b,5,6,7-tetrahydro-7aH-cyclopenta[4,5]furo[2,3-c]pyridin-7a-yl)benzonitrile] | 100 to 1000
COc1cncc2c1[C@]1(O)[C@H](O)[C@H](C(=O)NCc3ccnn3C)[C@@H](c3ccccc3)[C@]1(c1ccc(Br)cc1)O2 (racemic) [241F, rac-(4bS,5R,6R,7S,7aR)-7a-(4-bromophenyl)-4b,5-dihydroxy-4-methoxy-N-((1-methyl-1H-pyrazol-5-yl)methyl)-7-phenyl-4b,6,7,7a-tetrahydro-5H-cyclopenta[4,5]furo[2,3-c]pyridine-6-carboxamide] | < 100
COc1cncc2c1[C@]1(O)[C@H](O)[C@H](CNCc3ccnn3C)[C@@H](c3ccccc3)[C@]1(c1ccc(C#N)cc1)O2 (racemic) [242F, Rac-4-((4bS,5R,6S,7S,7aR)-4b,5-dihydroxy-4-methoxy-6-((((1-methyl-1H-pyrazol-5-yl)methyl)amino)methyl)-7-phenyl-4b,5,6,7-tetrahydro-7aH-cyclopenta[4,5]furo[2,3-c]pyridin-7a-yl)benzonitrile] | 100 to 1000
COc1cncc2c1[C@]1(O)[C@H](O)[C@H](CNC3CC3)[C@@H](c3ccccc3)[C@]1(c1ccc(C#N)cc1)O2 (racemic) [244F, Rac-4-((4bS,5R,6S,7S,7aR)-6-((cyclopropylamino)methyl)-4b,5-dihydroxy-4-methoxy-7-phenyl-4b,5,6,7-tetrahydro-7aH-cyclopenta[4,5]furo[2,3-c]pyridin-7a-yl)benzonitrile] | < 100
COc1cncc2c1[C@]1(O)[C@H](O)[C@H](C(=O)N(C)C3CC3)[C@@H](c3ccccc3)[C@]1(c1ccc(Br)cc1)O2 (racemic) [245F, Rac-(4bS,5R,6R,7S,7aR)-7a-(4-bromophenyl)-N-cyclopropyl-4b,5-dihydroxy-4-methoxy-N-methyl-7-phenyl-4b,6,7,7a-tetrahydro-5H-cyclopenta[4,5]furo[2,3-c]pyridine-6-carboxamide] | 100 to 1000
COc1cncc2c1[C@]1(O)[C@H](O)[C@H](CN(C)C3CC3)[C@@H](c3ccccc3)[C@]1(c1ccc(C#N)cc1)O2 (racemic) [246F, Rac-4-((4bS,5R,6S,7S,7aR)-6-((cyclopropyl(methyl)amino)methyl)-4b,5-dihydroxy-4-methoxy-7-phenyl-4b,5,6,7-tetrahydro-7aH-cyclopenta[4,5]furo[2,3-c]pyridin-7a-yl)benzonitrile] | 100 to 1000
COc1cncc2c1[C@]1(O)[C@H](O)[C@H](C(=O)N(C)CCF)[C@@H](c3ccccc3)[C@]1(c1ccc(Br)cc1)O2 (racemic) [247F, Rac-(4bS,5R,6R,7S,7aR)-7a-(4-bromophenyl)-N-(2-fluoroethyl)-4b,5-dihydroxy-4-methoxy-N-methyl-7-phenyl-4b,6,7,7a-tetrahydro-5H-cyclopenta[4,5]furo[2,3-c]pyridine-6-carboxamide] | < 100
COc1cncc2c1[C@]1(O)[C@H](O)[C@H](C(=O)N(C)Cc3ccnn3C)[C@@H](c3ccccc3)[C@]1(c1ccc(Br)cc1)O2 (racemic) [249F, Rac-(4bS,5R,6R,7S,7aR)-7a-(4-bromophenyl)-4b,5-dihydroxy-4-methoxy-N-methyl-N-((1-methyl-1H-pyrazol-5-yl)methyl)-7-phenyl-4b,6,7,7a-tetrahydro-5H-cyclopenta[4,5]furo[2,3-c]pyridine-6-carboxamide] | < 100
COc1cncc2c1[C@]1(O)[C@H](O)[C@H](C(=O)N(C)CC(C)(C)O)[C@@H](c3ccccc3)[C@]1(c1ccc(Br)cc1)O2 (racemic) [251F, Rac-(4bS,5R,6R,7S,7aR)-7a-(4-bromophenyl)-4b,5-dihydroxy-N-(2-hydroxy-2-methylpropyl)-4-methoxy-N-methyl-7-phenyl-4b,6,7,7a-tetrahydro-5H-cyclopenta[4,5]furo[2,3-c]pyridine-6-carboxamide] | < 100
COc1cncc2c1[C@]1(O)[C@H](O)[C@H](C(=O)NCC(C)(C)O)[C@@H](c3ccccc3)[C@]1(c1ccc(Br)cc1)O2 (racemic) [253F, Rac-(4bS,5R,6R,7S,7aR)-7a-(4-bromophenyl)-4b,5-dihydroxy-N-(2-hydroxy-2-methylpropyl)-4-methoxy-7-phenyl-4b,6,7,7a-tetrahydro-5H-cyclopenta[4,5]furo[2,3-c]pyridine-6-carboxamide] | < 100
COc1cncc2c1[C@]1(O)[C@H](O)[C@H](C(=O)N(C)C)[C@@H](c3ccccc3)[C@]1(c1ccc(C)cc1)O2 (racemic) [255F, rac-(4bS,5R,6R,7S,7aR)-4b,5-dihydroxy-4-methoxy-N,N-dimethyl-7-phenyl-7a-(p-tolyl)-4b,6,7,7a-tetrahydro-5H-cyclopenta[4,5]furo[2,3-c]pyridine-6-carboxamide] | 100 to 1000
COc1cncc2c1[C@]1(O)[C@H](O)[C@H](C(=O)N3CCCCC3)[C@@H](c3ccccc3)[C@]1(c1ccc(Br)cc1)O2 (racemic) [257F, Rac-((4bS,5R,6R,7S,7aR)-7a-(4-bromophenyl)-4b,5-dihydroxy-4-methoxy-7-phenyl-4b,6,7,7a-tetrahydro-5H-cyclopenta[4,5]furo[2,3-c]pyridin-6-yl)(piperidin-1-yl)methanone] | < 100
